According to patent publication US8557823B2, “Family of PFKFB3 inhibitors with anti-neoplastic activities” (Advanced Cancer Therapeutics, LLC, priority 2007, dated 2013):

Tested on: +/+ ht/LT/ras fibroblasts
Assay: Growth inhibition of wild-type transformed fibroblasts
Type: cell-based, mice
Details: Mus musculus, Fibroblast, 48 hours
Text: FIG. 6B is a bar graph showing the anti-proliferative effects of 3PO in fibroblasts from wild-type (+/+) or haplo-insufficient (+/−) PFKFB3 mice which were subsequently immortalized and transformed with human telomerase (ht), large T antigen (LT), and oncogenic H-ras^v12. Cell numbers (expressed as % of cell numbers of control cells) for transformed wild type (+/+) cells are shown in solid bars and numbers for transformed haplo-insufficient (+/−) cells are shown in striped bars. As indicated at the bottom of the graph, cells were incubated with vehicle or increasing amounts of 3PO (5, 10, 20, 30, 40, or 60 μM). Viable cells were counted after 48 hours. The bars represent the mean±STD of triplicate values from a representative experiment. * p-value<0.01 represents statistical difference between vehicle control and 3PO treated samples.
Cells were collected 48 hours post-treatment, and cell number and viability were determined by trypan blue exclusion. IC50 values were calculated as the compound 1 concentration needed for 50% of vehicle treated cell growth.
One of the most difficult challenges of new anti-neoplastic therapies is in situ target validation. To address this question, two different cell lines with varying levels of PFKFB3 expression were studied. […]

O=C(/C=C/c1cccnc1)c1ccncc1 [Compound 1, 3-(3-pyridinyl)-1-(4-pyridinyl)-2-propen-1-one]
IC50: 49 µM
